In patent US8242160B2, “Inhibitors of ubiquitin E1” (The United States of America, as represented by the …, priority 2005, dated 2012):

How the values were obtained:
Rabbit E1 = molecular target: T1, Rabbit E1 (Oryctolagus cuniculus, UniProt Q29504); assay: E1 only assay: thiolester linkage between 32P-labeled ubiquitin and E1; assay type: biochemical; details: gel-based assay with 32P-labeled ubiquitin; stated after block of E1-ubiquitin thiolester formation (FIG. 1B)
T1 construct: purchased Calbiochem #6620700
T1 sequence (Q29504 1-1058): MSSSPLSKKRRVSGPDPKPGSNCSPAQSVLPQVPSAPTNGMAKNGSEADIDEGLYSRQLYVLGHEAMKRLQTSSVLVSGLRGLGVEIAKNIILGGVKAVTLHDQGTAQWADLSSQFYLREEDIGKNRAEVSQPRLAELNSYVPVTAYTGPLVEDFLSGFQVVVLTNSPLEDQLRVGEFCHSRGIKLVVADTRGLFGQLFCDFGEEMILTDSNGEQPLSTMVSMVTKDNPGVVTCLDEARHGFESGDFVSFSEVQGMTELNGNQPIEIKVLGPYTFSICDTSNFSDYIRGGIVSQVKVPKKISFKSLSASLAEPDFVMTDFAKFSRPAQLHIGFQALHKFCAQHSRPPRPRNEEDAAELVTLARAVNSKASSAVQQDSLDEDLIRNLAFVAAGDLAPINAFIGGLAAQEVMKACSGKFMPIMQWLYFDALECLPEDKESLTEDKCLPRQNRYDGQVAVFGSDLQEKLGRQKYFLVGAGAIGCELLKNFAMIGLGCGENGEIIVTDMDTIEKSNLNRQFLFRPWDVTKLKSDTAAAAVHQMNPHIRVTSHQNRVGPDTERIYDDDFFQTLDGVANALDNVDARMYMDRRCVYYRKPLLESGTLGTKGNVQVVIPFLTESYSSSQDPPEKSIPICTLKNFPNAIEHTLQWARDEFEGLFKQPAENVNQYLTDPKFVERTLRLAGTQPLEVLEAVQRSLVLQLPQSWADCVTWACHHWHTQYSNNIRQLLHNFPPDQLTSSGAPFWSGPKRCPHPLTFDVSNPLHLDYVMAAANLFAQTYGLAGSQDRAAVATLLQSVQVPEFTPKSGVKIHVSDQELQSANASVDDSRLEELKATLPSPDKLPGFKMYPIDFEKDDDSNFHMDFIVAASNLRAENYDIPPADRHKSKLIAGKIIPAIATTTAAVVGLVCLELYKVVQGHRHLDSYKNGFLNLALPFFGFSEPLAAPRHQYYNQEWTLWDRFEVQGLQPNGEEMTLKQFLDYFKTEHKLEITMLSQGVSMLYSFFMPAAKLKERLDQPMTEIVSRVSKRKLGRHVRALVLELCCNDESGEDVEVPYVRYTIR
Method: Since Mdm2 autoubiquitination depends on the activity of E1 and E2, some of these might act by inhibiting E1. In fact, some did block the formation of thiolester linkages between ^32P-labeled ubiquitin and E1 (FIG. 1B). The compound 4-[4-(5-nitro-furan-2-ylmethylene)-3,5-dioxo-pyrazolidin-1-yl]-benzoic acid methyl acid was active at a concentration of 20-50 μM.
b. “E1 Only” Assay. • 2 μl rabbit E1+12 μl of 1× reaction buffer are mixed together with the test compound followed by addition of 1 μl of ^32P Ub. After incubating for 10 minutes at room temperature, the samples are denatured using loading buffer without reducing agent and subjected to SDS-PAGE under non-reducing conditions to maintain thiol-ester linkages and exposure as above.

J588 mouse myeloma cells = assay: Killing of myeloma cells; assay type: cell-based
Source text: FIG. 6B depicts the dose-depending killing of J588 mouse myeloma cells by proteasome and E1 inhibitor by 4-[4-(5-nitro-furan-2-ylmethylene)-3,5-dioxo-pyrazolidin-1-yl]-benzoic acid methyl acid.
While p53 induces apoptotic cell death in many tumor cells, it generally only induces growth arrest in untransformed cells. This has been the rationale for many studies targeting the p53 system.

NFκB = NFκB response element-driven luciferase reporter, IL-1 induced; assay type: cell-based, human; details: HeLa cells, 50 μM for 10 minutes, then IL-1 0-1.0 ng/ml for 2 hours
Method: HeLa cells (human epithelial cells) were transfected with a NFκB response element-driven luciferase reporter. The cells were treated with E1 41 (50 μM) for 10 minutes, or dimethyl sulfoxide (DMSO) control. Interleukin 1 (IL-1) was added to the cells for 2 hours. IL-1 was added at concentrations ranging from 0-1.0 ng/ml to induce activation of NFκB. An assay for luciferase activity was carried out according to the methods as described in the commercially available PROMEGA system for luciferase detection.

With `COC(=O)c1ccc(N2NC(=O)/C(=C/c3ccc([N+](=O)[O-])o3)C2=O)cc1` [E1-41, 4-[4-(5-nitro-furan-2-ylmethylene)-3,5-dioxo-pyrazolidin-1-yl]-benzoic acid methyl acid] the “concentration at which the compound was active” value (Rabbit E1) was 20 to 50 µM, the “killing of myeloma cells” value (J588 mouse myeloma cells) was “kills myeloma cells in a dose-dependent manner” and the “IL-1 induced NFκB luciferase reporter activity” value (NFκB) was “reduction of luciferase activity”.
